Measured values reported in patent US8778954B2, “Phenylpyridine derivative and medicinal agent comprising same” (Kowa Company, Ltd., priority 2009, dated 2014).

How the values were obtained:
human PPARγ2 = target: T1, human PPARγ2 (Homo sapiens, UniProt P37231); test: PPARγ activation activity, Gal4-PPARγ2 LBD luciferase transfection assay using COS7 cells; type: cell-based; conditions: Gal4-human PPARγ2 LBD chimera, 16 hours, rosiglitazone = 100%
T1 construct: the amino acids 182 to 505 of human PPARγ2; expressed in transfected cells; host or cells: COS7 cells (African green monkey kidney)
T1 sequence (P37231 182-505): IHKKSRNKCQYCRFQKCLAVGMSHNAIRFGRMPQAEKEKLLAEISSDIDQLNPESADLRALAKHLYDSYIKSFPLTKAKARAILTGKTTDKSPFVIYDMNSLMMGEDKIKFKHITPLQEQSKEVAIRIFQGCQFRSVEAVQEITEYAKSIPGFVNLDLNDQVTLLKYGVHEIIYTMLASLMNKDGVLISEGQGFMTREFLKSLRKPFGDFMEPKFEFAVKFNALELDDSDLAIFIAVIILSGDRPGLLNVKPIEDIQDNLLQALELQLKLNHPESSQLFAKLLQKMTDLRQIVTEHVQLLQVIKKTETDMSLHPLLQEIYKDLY
Method: The agonistic activity of the compounds of the invention on PPARγ was measured based on the transfection assay using COS7 cells (DS Pharma Biomedical Co., Ltd., Osaka, Japan), which are the cell line derived from the kidney of the African green monkey. COS7 cells were cultured under 5% CO2 concentration, and DMEM medium containing 10% fetal bovine serum, glutamic acid, and antibiotics was used as a medium.
As an expression vector, a chimera in which DNA binding domain of Gal4, which is a yeast transcription factor, and ligand binding domain of human PPARγ2 are fused, i.e., a fused product between the amino acids 1 to 147 of Gal4 transcription factor and the amino acids 182 to 505 of human PPARγ2, was used. Furthermore, as a reporter vector, a firefly luciferase containing five copies of Gal4 recognition sequence in the promoter region was used. Plasmid transfection to the cells was performed according to a method which uses jetPEI (trade name, manufactured by Funakoshi Co., Ltd., Tokyo, Japan). Furthermore, β-galactosidase expression vector was employed as an internal standard.
After the transfection of the cells, the medium was replaced with a DMEM medium (containing 1% serum) added with the test compound, and the cells were further cultured for 16 hours. After that, the luciferase activity and β-galactosidase activity in the cell lysis solution were measured.
For the present test, dimethyl sulfoxide (DMSO) was used for dissolution and dilution of the test compounds, and during the cell treatment, the DMSO concentration in DMEM medium (containing 1% serum) was adjusted to 0.1%. As a positive compound, rosiglitazone (trade name, manufactured by ALEXIS Corporation, Switzerland) was used. The luciferase activity (%) of the test compounds (1 to 30 μmol/L) was calculated when the luciferase activity of rosiglitazone (3 to 10 μmol/L) is 100% and the luciferase activity in the absence of the test compound is 0%. The 50% effective concentration of the test compound (EC50, 50% effect concentration) was calculated by using SAS Preclinical Package Ver 5.0 (trade name, manufactured by SAS institute Japan Co., Tokyo, Japan), which is a statistical analysis program.
EC50 values of these compounds are described in Table 2. […] Under the same condition, the PPARγ activation activity of telmisartan, i.e., EC50, was 1 to 5 μM.

[1] = test system: Zucker diabetic fatty (ZDF) rats; test: Activity for diabetic nephropathy in Zucker diabetic fatty rats; type: in vivo, rat; conditions: 3 mg/kg once a day for 15 weeks; for elimination amount of urinary total protein per 18 hours: FIG. 4; for plasma triglyceride concentration: FIG. 5; for plasma total cholesterol concentration: FIG. 6; for renal protecting activity (diabetic nephropathy): overall conclusion
Method: By using 8-week old Zucker diabetic fatty (ZDF) rats, the body weight, the elimination amount of urinary total protein (UTP), the plasma triglyceride concentration (TG), and the plasma total cholesterol concentration (TC) of each rat were measured before administration of the medicine, and group separation was performed by blocking assignment so that there was no variation of these values between respective groups. Solvent control (0.5% MC), 3 mg/kg telmisartan, 3 mg/kg of the compound of Example 21, and 3 mg/kg of the compound of Example 23 were administered iteratively for 15 weeks once a day. UTP, TG, and TC were measured according to a general method during the administration period at 4, 8, 12, and 15 weeks after the administration.
Vehicle, Telmisartan, Compound 23, and Compound 21 in FIGS. 4, 5, and 6 represent solvent control, telmisartan, the compound of Example 23, and the compound of Example 21, respectively. The horizontal axis of FIG. 4-1 represents time (weeks after administration), and the vertical axis represents the elimination amount of urinary total protein per 18 hours. The data in FIG. 4-1 represents average values of each individual in each point, wherein -●- represents Vehicle (solvent control), -♦- represents Telmisartan, -▪- represents Compound 23 (the compound of Example 23), and -▴- represents Compound 21 (the compound of Example 21). The vertical axis of FIG. 4-2 represents the elimination amount of urinary total protein per 18 hours. The data in FIG. 4-2 represents individual values and average values of each individual +standard deviation.
The vertical axis of FIG. 5 represents the plasma triglyceride concentration. The data in FIG. 5 represents individual values and average values of each individual.
The vertical axis of FIG. 6 represents the plasma total cholesterol concentration. The data in FIG. 6 represents individual values and average values of each individual.
Furthermore, it was believed that one reason for the potent activity may be related to improving activity of lipid metabolism, and it is believed that the potent activity is attributed to activities other than the angiotensin receptor antagonistic activity.

[2] = target: T2, angiotensin II type 1 receptor (Oryctolagus cuniculus, UniProt P34976); test: Angiotensin II receptor antagonistic activity in isolated rabbit blood vessels (thoracic aorta ring, angiotensin II-induced contraction); type: cell-based; conditions: 0.1 μM test compound, angiotensin II (10 nM)-induced contraction, read-out: Angiotensin II activity inhibitiom rate (%) at 0.1 μM concentration
T2 construct: By using a specimen of isolated rabbit blood vessels; from tissue; host or cells: rabbit (New Zealand White) thoracic aorta ring
T2 sequence (P34976 1-359): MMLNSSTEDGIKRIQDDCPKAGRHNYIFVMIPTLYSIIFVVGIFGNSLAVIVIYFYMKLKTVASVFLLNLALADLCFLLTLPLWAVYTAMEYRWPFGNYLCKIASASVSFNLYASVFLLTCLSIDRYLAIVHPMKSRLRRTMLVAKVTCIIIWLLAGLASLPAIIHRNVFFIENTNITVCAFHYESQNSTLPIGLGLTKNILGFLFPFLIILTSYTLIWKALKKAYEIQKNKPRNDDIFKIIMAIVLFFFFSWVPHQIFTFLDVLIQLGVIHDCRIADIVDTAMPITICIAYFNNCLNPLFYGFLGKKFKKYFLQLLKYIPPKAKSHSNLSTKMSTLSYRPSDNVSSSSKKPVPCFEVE
Method: By using a specimen of isolated rabbit blood vessels, antagonistic activity of the compounds of the invention against angiotensin II type 1 receptor was estimated from a dose-response curve of angiotensin II-induced blood vessel contraction. Specifically, the specimen of thoracic aorta ring of a rabbit (New Zealand White: male, 2.4 to 3.0 kg) was suspended in a magnus bath filled with Krebs-Henseleite buffer (composition: 118 mM NaCl, 4.7 mM KCl, 2.55 mM CaCl2, 1.18 mM MgSO4, 1.18 mM KH2PO4, 24.88 mM NaHCO3, and 11.1 mM D-glucose), and angiotensin II (10 nM)-induced contraction was obtained in the presence of the compounds of each test (1 nmol/L to 10 μmol/L). During the measurement, the inside temperature of the magnus bath was maintained at 37° C. and the bath was continuously ventilated with a sufficient amount of mixed gas (95% O2 and 5% CO2). The angiotensin II-induced contraction was converted into a relative value (%) that is based on the angiotensin II (0.1 μM)-induced contraction in the absence of the compounds of each example.

Compound	EC50 (human PPARγ2) [µM]	elimination amount of urinary total protein per 18 hours [1]	plasma triglyceride concentration [1]	plasma total cholesterol concentration [1]	renal protecting activity (diabetic nephropathy) [1]	inhibition at 0.1 µM [2] [%]
CCCCc1nc(C2CC2)n(-c2ncc(OCC)cn2)c(=O)c1Cc1ccc(-c2ccccc2-c2noc(=O)[nH]2)nc1 [Example 23, 3-{2-{5-{[4-butyl-2-cyclopropyl-1-(5-ethoxypyrimidin-2-yl)-6-oxo-1,6-dihydropyrimidin-5-yl]methyl}pyridin-2-yl}phenyl}-1,2,4-oxadiazol-5(4H)-one]	0.76	remarkably inhibited increase of the elimination amount of urinary total protein, and their activity was more potent than that of telmisartan	remarkably lowered the plasma triglyceride concentration	remarkably lowered the plasma total cholesterol concentration, and such activity was more potent than that of telmisartan	potent renal protecting activity	75.2
CCCCc1nc(C(C)C)n(-c2ncc(OCC)cn2)c(=O)c1Cc1ccc(-c2ccccc2-c2noc(=O)[nH]2)nc1 [Example 21, 3-{2-{5-{[4-butyl-1-(5-ethoxypyrimidin-2-yl)-2-isopropyl-6-oxo-1,6-dihydropyrimidin-5-yl]methyl}pyridin-2-yl}phenyl}-1,2,4-oxadiazol-5(4H)-one]	0.45	remarkably inhibited increase of the elimination amount of urinary total protein, and their activity was more potent than that of telmisartan	remarkably lowered the plasma triglyceride concentration	remarkably lowered the plasma total cholesterol concentration, and such activity was more potent than that of telmisartan	potent renal protecting activity	70.3
